Assay results reported in PMC12867150, “A fungi-derived cyclic peptide enhances Th9-mediated antitumor immunity by targeting ZAP70 and SREBP1” (The Journal of Clinical Investigation, 2025).
Where “and” joins values, the source holds several entries; their conditions need not be identical. Equal values may be shown once.

What was measured:
[1] = tested on: Il9 and Tnf mRNA in Th9 cells; assay: Quantitative PCR of Il9 and Tnf mRNA with fatostatin or SREBP1 overexpression (Figure 7B, 7H, 7I); type: cell-based, mouse
Method: For murine T cell transduction, MIGR1-based retroviral vector encoding Srebf1 was used. HEK293T cells were transfected with these constructs using Lipofectamine 3000 (Thermo Fisher Scientific) to produce viral particles. Supernatants were collected between 48 and 72 hours after transfection, filtered through a 0.45 μm membrane, and stored at –80°C. Naive murine CD4^+ T cells were activated with plate-bound anti-CD3 (2 μg/mL, clone 17A2, BioXCell) and soluble anti-CD28 (1 μg/mL, clone 37.51, BioXCell) stimulation in the presence of subset-specific polarizing cytokines and then transduced with viral supernatant supplemented with polybrene (10 μg/mL).
Total RNA was extracted from T cells using RNAex Pro Reagent (AG, catalog AG21102) following the manufacturer’s instructions. First-strand complementary DNA (cDNA) was synthesized using the Hifair III 1st Strand cDNA Synthesis SuperMix (YEASEN, catalog 11137ES10). Quantitative real-time PCR (qRT-PCR) was conducted on a QuantStudio 3 Real-Time PCR System (Thermo Fisher Scientific) using ChamQ Universal SYBR qPCR Master Mix (Vazyme, catalog Q711-02) and gene-specific primers (Tsingke Biotech).
For normalization, mouse samples were referenced to Gapdh or Actb, and human samples were normalized to GAPDH. Relative gene expression was calculated using the ΔΔCt method. Primer sequences are listed in Supplemental Table 5.

Th9 cells = assay: Seahorse extracellular acidification rate, glycolysis stress test (Figure 4B-D); type: cell-based, mouse; parameters: basal glycolysis of seahorse extracellular flux: unit not given here
Method: After stimulation, cells were washed, resuspended in Seahorse XF assay medium (Agilent Technologies; pH 7.40–7.45, catalog 103576-100) and seeded at 5 × 10^5 cells per well in Seahorse XF96 microplates. Plates were centrifuged at 400 × g for 5 minutes to promote adherence and monolayer formation, and all conditions were tested in quadruplicate.
Glycolytic activity was measured on a Seahorse XFe96 Extracellular Flux Analyzer (Agilent Technologies) using the XFe96 Glycolysis Stress Test kit (Agilent Technologies, catalog 103020-100) per the manufacturer’s instructions. Sequential injections of glucose (10 mM), oligomycin (1 μM), and 2-deoxyglucose (2-DG; 50 mM) were administered to determine ECAR as a proxy for glycolytic function. A glycolytic index was calculated from ECAR values obtained before and after each injection.

SREBP1 = assay: CETSA of SREBP1 (Figure 6D-E); type: binding; conditions: result in words
Method: Jurkat or 293T cells were washed twice with PBS and resuspended in PBS containing protease and phosphatase inhibitors. Cells were lysed by 3 cycles of liquid nitrogen snap-freezing and thawing at room temperature. […] One aliquot from each group was maintained at room temperature, and the others were heated for 3 minutes at 3 °C increments from 43°C to 64°C. Samples were then analyzed by SDS-PAGE and immunoblotting to assess protein thermal stability and compound binding.

Raji-luciferase tumor = assay: Raji-luciferase xenograft, survival (Figure 8L); type: in vivo, NSG mice; conditions: EpA-treated human Th9 CAR T cells 2 × 10^6 i.v.; n = 5; result in words
Excerpt: Representative plots (A) and quantification (B) (n = 4). (C) Quantitative PCR analysis of IL9, IRF4, and SPI1 mRNA expression in human Th9 cells (n = 3). (D) Flow-cytometric analysis of mitochondrial membrane potential in human Th9 cells (n = 3). (E) Luciferase-based assay analysis of intracellular ATP levels in human Th9 cells (n = 5). (F) Flow-cytometric analysis of phosphorylated ZAP70 in human Th9 cells (n = 3). (G) Flow-cytometric analysis of TNF-α expression in human Th9 cells (n = 4). (H) Cytotoxicity assay of EpA-treated or control CD19 CAR Th9 cells against Raji lymphoma target cells at indicated effector-to-target (E/T) ratios (n = 3). (I) Schematic diagram of the in vivo Raji-luciferase xenograft model in NSG mice receiving control or EpA-treated human Th9 CAR T cells. (J and K) Representative bioluminescence imaging (J) and quantification of tumor radiance (K) in NSG mice at indicated time points after adoptive transfer. […] Statistical significance was determined using 2-tailed unpaired Student’s t test (B–H), 2-way ANOVA followed by Šidák’s post hoc test (K), and log-rank test (L). […]
For xenograft models, M-NSG mice were intravenously inoculated with 1 × 10^6 Raji-CD19 tumor cells. […] Tumor progression and immune cell infiltration were subsequently monitored according to experimental endpoints.

[2] = EpA 10 μM, 4 days, result in words

anteiso-C15 Leu7 surfactin [EpA]
Il9 mRNA expression (quantitative PCR) ([1]; Figure 7B, EpA (10 µM) + Fatostatin (10 µM), individual replicates, (n = 3)): 42.4796 and 40.5146 and 54.9024 | Il9 mRNA expression in Th9 cells ([1]; Figure 7H, MigR1 vector, individual replicates, (n = 3)): 17.2536 and 18.9128 and 17.6178 | Il9 mRNA expression in Th9 cells ([1]; Figure 7H, overexpressing SREBP1, individual replicates, (n = 3)): 6.0458 and 5.242 and 5.497 | Il9 mRNA expression in Th9 cells ([1]; Figure 7I, MigR1 vector, individual replicates, (n = 3)): 2.765 and 2.875 and 2.532 | Il9 mRNA expression in Th9 cells ([1]; Figure 7I, overexpressing SREBP1, individual replicates, (n = 3)): 1.999 and 1.591 and 1.423 | EpA-induced Il9 and Tnf mRNA increase upon SREBP1 overexpression ([1]; result in words): markedly suppressed | basal and maximal ECAR (Th9 cells; [2]): significantly elevated | extracellular acidification rate (ECAR) (Th9 cells; [2]): marked increase | basal glycolysis of seahorse extracellular flux (Th9 cells; Figure 4C, individual replicates, n = 6): 3.18 and 3.13 and 4.92 and 4.79 and 3.98 and 4.85 | max glycolytic capacity of seahorse extracellular flux (Th9 cells; Figure 4D, individual replicates, n = 6, in mpH/min (unit assumed)): 34.82 and 36.26 and 48.55 and 43.93 and 34.44 and 51.9 | thermal stability of SREBP1 (SREBP1): enhanced thermal stability of SREBP1 | survival (Raji-luciferase tumor): significantly prolonged survival
